Results from patent JP2014001205A, “動物の寄生虫防除剤” (Nissan Chemical Corp, priority 2012, dated 2014).

System: cat flea (Ctenocephalides felis) adults [ネコノミ(Ctenocephalides felis)成虫]
Experiment: Efficacy test against cat flea (Test Example 1), glass container film contact
Type: in vivo
Settings: 96 h, 10μg/cm2, 5 adults (mixed sex), 25℃, 4 days, duplicate, read-out: efficacy (number of insects with abnormal behaviour due to compound / number released × 100)

SMILES	pest or weed control at 10 µg/cm2
CCN(C(=O)[C@H](C)CSC)c1cn(-c2cccnc2)nc1Cl [1−048(S)−(−), (S)−(−)−N−{3−クロロ−1−(ピリジン−3−イル)−1H−ピラゾール−4−イル}−N−エチル−2−メチル−3−(メチルチオ)プロパンアミド]	≥ 80%
C[C@H](CS(C)(=O)=O)C(=O)N(C)c1cn(-c2cccnc2)nc1Cl [1−054(S)−(+)]	≥ 80%
CSCC(C)C(=O)Nc1cn(-c2cccnc2)nc1Cl (stereo not shown) [1−074]	≥ 80%
CCOCC(=O)N(CC)c1cn(-c2cccnc2)nc1Cl [1−220]	≥ 80%
CCN(C(=O)C(C)SC(C)=O)c1cn(-c2cccnc2)nc1Cl (stereo not shown) [1−245]	≥ 80%
CCNC(=O)NCC(=O)N(CC)c1cn(-c2cccnc2)nc1Cl [1−375]	≥ 80%
CCN(C(=O)CSCC(OC)OC)c1cn(-c2cccnc2)nc1Cl [1−434]	≥ 80%
CCN(C(=O)C(=O)Nc1ccccc1)c1cn(-c2cccnc2)nc1Cl [1−464]	≥ 80%
CCc1nn(-c2cccnc2)cc1N(CC)C(=O)C(C)CSC (stereo not shown) [1−484]	≥ 80%
CC(CS(C)(=O)=O)C(=O)Nc1cn(-c2cccnc2)nc1Cl (stereo not shown) [1−494]	≥ 80%
CCN(C(=O)NCC(F)(F)F)c1cn(-c2cccnc2)nc1Cl [1−501]	≥ 80%
CCN(C(=O)CCCSC)c1cn(-c2cccnc2)nc1Cl [1−520]	≥ 80%
CC(C)(C)OC(=O)N(CC#N)c1cn(-c2cccnc2)nc1Cl [1−522]	≥ 80%
CCN(C(=O)C(C)CSC)c1cn(-c2cccnc2)nc1C(F)(F)F (stereo not shown) [1−523]	≥ 80%
CCN(C(=O)CCC[S+](C)[O-])c1cn(-c2cccnc2)nc1Cl (stereo not shown) [1−527]	≥ 80%
CCN(C(=O)CCCS(C)(=O)=O)c1cn(-c2cccnc2)nc1Cl [1−528]	≥ 80%
CCNC(=S)Nc1cn(-c2cccnc2)nc1C [1−549]	≥ 80%
CCNC(=O)N(C)c1cn(-c2cccnc2)nc1Cl [1−551]	≥ 80%
CNC(=S)Nc1cn(-c2cccnc2)nc1Cl [1−552]	≥ 80%
CC(C)NC(=S)Nc1cn(-c2cccnc2)nc1Cl [1−554]	≥ 80%
CCN(C(N)=O)c1cn(-c2cccnc2)nc1Cl [1−572]	≥ 80%
CN(C(=O)NCC(F)(F)F)c1cn(-c2cccnc2)nc1Br [1−586]	≥ 80%
CCN(C(=O)NCC(F)(F)F)c1cn(-c2cccnc2)nc1Br [1−587]	≥ 80%
C=CCNC(=O)N(CC)c1cn(-c2cccnc2)nc1Cl [1−595]	≥ 80%
CCN(C(=O)C(C)CS(=O)(=O)N(C)C)c1cn(-c2cccnc2)nc1Cl (stereo not shown) [1−596]	≥ 80%

Same assay, conditions: 96 h, read-out: efficacy (number of insects with abnormal behaviour due to compound / number released × 100)

SMILES	pest or weed control at 10 µg/cm2
O=C(NCCCl)Nc1cn(-c2cccnc2)nc1Cl [1−593]	≥ 80%

System: American dog tick (Dermacentor variabilis) first nymphs [American dog tick(Dermacentor variabilis)第1若虫]
Experiment: Efficacy test against American dog tick (Test Example 2), glass container film contact
Type: in vivo
Settings: 96 h, 10μg/cm2, 5 first nymphs (mixed sex), 25℃, 4 days, duplicate, read-out: efficacy (number with abnormal behaviour due to compound / number released × 100)

SMILES	pest or weed control at 10 µg/cm2
CON=C(CSC)C(=O)N(C)c1cn(-c2cccnc2)nc1Cl (single isomer, unassigned) [1−142]	≥ 80%
CCON=C(CSC)C(=O)N(CC)c1cn(-c2cccnc2)nc1Cl (single isomer, unassigned) [1−157]	≥ 80%
CSCCC(=O)Nc1cnn(-c2cccnc2)c1 [1−006]	≥ 80%
CSCCC(=O)N(C)c1cn(-c2cccnc2)nc1C [1−018, N−メチル−N−{3−メチル−1−(ピリジン−3−イル)−1H−ピラゾール−4−イル}−3−(メチルチオ)プロパンアミド]	≥ 80%
Cc1nn(-c2cccnc2)cc1NC(=O)NCC(F)(F)F [1−032]	≥ 80%
CCN(C(=O)CCSC)c1cn(-c2cccnc2)nc1Cl [1−033]	≥ 80%
CS(=O)(=O)C1CCCN(c2cnn(-c3cccnc3)c2)C1=O (stereo not shown) [1−035]	≥ 80%
CCN(C(=O)CCSC)c1cnn(-c2cccnc2)c1 [1−044]	≥ 80%
CC(C)(C)OC(=O)Nc1cn(-c2cccnc2)nc1Cl [1−046, tert−ブチル 3−クロロ−1−(ピリジン−3−イル)−1H−ピラゾール−4−イルカーバメート]	≥ 80%
CCN(C(=O)OC(C)(C)C)c1cn(-c2cccnc2)nc1Cl [1−056, tert−ブチル 3−クロロ−1−(ピリジン−3−イル)−1H−ピラゾール−4−イル(エチル)カーバメート]	≥ 80%
CSCCC(=O)Nc1cn(-c2cccnc2)nc1Cl [1−058]	≥ 80%
CCN(C(=O)NCCSC)c1cn(-c2cccnc2)nc1C [1−060]	≥ 80%
CCCN(C(=O)CCSC)c1cn(-c2cccnc2)nc1Cl [1−063]	≥ 80%
C=CCN(C(=O)CCSC)c1cn(-c2cccnc2)nc1Cl [1−064]	≥ 80%
CCCN(C(=O)C(C)CSC)c1cn(-c2cccnc2)nc1Cl (stereo not shown) [1−066]	≥ 80%
CCN(C(=O)COCSC)c1cn(-c2cccnc2)nc1Cl [1−067]	≥ 80%
CCC(CSC)C(=O)N(C)c1cn(-c2cccnc2)nc1Cl (stereo not shown) [1−084]	≥ 80%
COCN(C(=O)C(C)CSC)c1cn(-c2cccnc2)nc1Cl (stereo not shown) [1−086]	≥ 80%
Cc1nn(-c2cccnc2)cc1N(C)C(N)=O [1−094]	≥ 80%
CCSCC(=O)N(CC)c1cn(-c2cccnc2)nc1Cl [1−107]	≥ 80%
CCN(C(=O)CC[S+](C)[O-])c1cn(-c2cccnc2)nc1C (stereo not shown) [1−110]	≥ 80%
CCN(C(=O)CCSC(C)C)c1cn(-c2cccnc2)nc1Cl [1−123]	≥ 80%
CCN(C(=O)CCSCC(F)(F)F)c1cn(-c2cccnc2)nc1Cl [1−124]	≥ 80%
C=C1CCN(c2cn(-c3cccnc3)nc2Cl)C1=O [1−133, 1−{3−クロロ−1−(ピリジン−3−イル)−1H−ピラゾール−4−イル}−3−メチレンピロリジン−2−オン]	≥ 80%
CSCC(C)(C)C(=O)N(C)c1cn(-c2cccnc2)nc1Cl [1−134, N−{3−クロロ−1−(ピリジン−3−イル)−1H−ピラゾール−4−イル}−N,2,2−トリメチル−3−(メチルチオ)プロパンアミド]	≥ 80%
CC(=O)N(C)c1cn(-c2cccnc2)nc1Cl [1−148]	≥ 80%
CCN(C(C)=O)c1cn(-c2cccnc2)nc1Cl [1−149]	≥ 80%
CCCC(=O)N(CC)c1cn(-c2cccnc2)nc1Cl [1−151]	≥ 80%

SMILES	pest or weed control at 10 µg/cm2
C=CC(=O)N(CC)c1cn(-c2cccnc2)nc1Cl [1−152, N−{3−クロロ−1−(ピリジン−3−イル)−1H−ピラゾール−4−イル}−N−エチルアクリルアミド]	≥ 80%
CCN(C(=O)CC[S+]([O-])CC(F)(F)F)c1cn(-c2cccnc2)nc1Cl (stereo not shown) [1−154]	≥ 80%
CCN(C(=O)CCS(=O)(=O)CC(F)(F)F)c1cn(-c2cccnc2)nc1Cl [1−155]	≥ 80%
O=C(NCC(F)(F)F)Nc1cn(-c2cccnc2)nc1Cl [1−158]	≥ 80%
CCN(C(=O)C(CSC)=NOC(C)C)c1cn(-c2cccnc2)nc1Cl [1−172]	≥ 80%
CCCON=C(CSC)C(=O)N(CC)c1cn(-c2cccnc2)nc1Cl [1−173]	≥ 80%
CCCCON=C(CSC)C(=O)N(CC)c1cn(-c2cccnc2)nc1Cl [1−184]	≥ 80%
CSCCN(C(C)=O)c1cn(-c2cccnc2)nc1Cl [1−186]	≥ 80%
CC(C)(C)OC(=O)Nc1cn(-c2cccnc2)nc1Br [1−188, tert−ブチル 3−ブロモ−1−(ピリジン−3−イル)−1H−ピラゾール−4−イルカーバメート]	≥ 80%
CCN(C(=O)C(C[S+](C)[O-])OC)c1cn(-c2cccnc2)nc1Cl (stereo not shown) [1−199]	≥ 80%
CCON=C(C[S+](C)[O-])C(=O)N(CC)c1cn(-c2cccnc2)nc1Cl (stereo not shown) [1−208]	≥ 80%
CCN(C(=O)C(CSC)c1ccccc1)c1cn(-c2cccnc2)nc1Cl (stereo not shown) [1−216]	≥ 80%
C=CCON=C(CSC)C(=O)N(CC)c1cn(-c2cccnc2)nc1Cl [1−222]	≥ 80%
CCN(C(=O)C(C)SC(C)C)c1cn(-c2cccnc2)nc1Cl (stereo not shown) [1−248]	≥ 80%
CON=C(COCC(F)(F)F)C(=O)N(C)c1cn(-c2cccnc2)nc1Cl [1−273]	≥ 80%
CCN(C(=O)CC(=NOC)C(F)(F)F)c1cn(-c2cccnc2)nc1Cl [1−303]	≥ 80%
CC(C)(C)OC(=O)N(CC(F)(F)F)c1cn(-c2cccnc2)nc1Cl [1−324]	≥ 80%
CC(C)(C)OC(=O)N(CC1CC1)c1cn(-c2cccnc2)nc1Cl [1−343]	≥ 80%
CCSC(C)C(=NOC)Nc1cn(-c2cccnc2)nc1Cl (stereo not shown) [1−356, N−{3−クロロ−1−(ピリジン−3−イル)−1H−ピラゾール−4−イル}−2−(エチルチオ)−N’−メトキシプロパンイミダミド]	≥ 80%
CCN(C(=O)CC(CSC)=NOC)c1cn(-c2cccnc2)nc1Cl [1−367]	≥ 80%
CCN(C(=O)OC(C)(C)C)c1cn(-c2cccnc2)nc1OC [1−395]	≥ 80%
CCN(C(=O)CNC(=O)C(F)(F)F)c1cn(-c2cccnc2)nc1Cl [1−409]	≥ 80%
CCN(C(=O)CCC(F)=C(F)F)c1cn(-c2cccnc2)nc1Cl [1−418]	≥ 80%
CCN(C(=O)COC(C)(C)C)c1cn(-c2cccnc2)nc1Cl [1−439]	≥ 80%
CCSC(C)C(=S)Nc1cnn(-c2cccnc2)c1 (stereo not shown) [1−480]	≥ 80%
CCN(C(=O)C(C)CS(C)(=O)=O)c1cn(-c2cccnc2)nc1C (stereo not shown) [1−490]	≥ 80%
CSCC(=O)N(C)C(C)=Nc1cn(-c2cccnc2)nc1C [3−004, N−メチル−N−[1−{3−メチル−1−(ピリジン−3−イル)−1H−ピラゾール−4−イルイミノ}エチル]−2−(メチルチオ)アセタミド]	≥ 80%

Same assay, conditions: 96 h, read-out: efficacy (number with abnormal behaviour due to compound / number released × 100)

SMILES	pest or weed control at 10 µg/cm2
CCN(C(=O)C(CSC)=NOCC[Si](C)(C)C)c1cn(-c2cccnc2)nc1Cl [1−268]	≥ 80%
